US6476019B1, “Spirocyclic ligands for sigma receptors, and libraries and methods of use thereof” (Sepracor Inc., priority 1999, dated 2002)
In brackets after ≈: the same amount, converted by molar mass. Read-outs that look alike come from different tables or passages of the source.

Key:
[1] = system: [3H]haloperidol binding sites in guinea pig brain; conditions: cited from earlier work
[2] = molecular target: T1, sigma-1 receptor (guinea pig brain) (Cavia porcellus, UniProt Q60492); test: Antagonism of haloperidol binding to guinea pig sigma-1 receptors; conditions: sigma-1, guinea pig brain; for % Inhibition: test concentration not given
T1 construct: from tissue; host or cells: guinea pig brain

Permeability = format: in vitro ADME; conditions: not told; read-out: Permeability PupperX10^6 cm/s
[3] = pH 7.5
CYP2C9 [4] = molecular target: T2, CYP2C9 (Homo sapiens, UniProt P11712)
CYP2D6 [5] = molecular target: T3, CYP2D6 (Homo sapiens, UniProt P10635)
CYP2C19 [6] = molecular target: T4, CYP2C19 (Homo sapiens, UniProt P33261)
CYP3A4 [7] = molecular target: T5, CYP3A4 (Homo sapiens, UniProt P08684)
GSH Level [8] = system: GSH Level
Cell Viability [9] = system: Cell Viability
Caspase-3 [10] = system: Caspase-3
Membrane Integrity [11] = system: Membrane Integrity
RedOx State [12] = system: RedOx State
DNA Synthesis = test: Safety Assessment: DNA Synthesis
Protein Synthesis = test: Safety Assessment: Protein Synthesis
CYP1A2 [13] = molecular target: T6, CYP1A2 (Homo sapiens, UniProt P05177); test: In Vitro Metabolism (isozymes of P450) CYP1A2
T6 sequence (P05177 1-516): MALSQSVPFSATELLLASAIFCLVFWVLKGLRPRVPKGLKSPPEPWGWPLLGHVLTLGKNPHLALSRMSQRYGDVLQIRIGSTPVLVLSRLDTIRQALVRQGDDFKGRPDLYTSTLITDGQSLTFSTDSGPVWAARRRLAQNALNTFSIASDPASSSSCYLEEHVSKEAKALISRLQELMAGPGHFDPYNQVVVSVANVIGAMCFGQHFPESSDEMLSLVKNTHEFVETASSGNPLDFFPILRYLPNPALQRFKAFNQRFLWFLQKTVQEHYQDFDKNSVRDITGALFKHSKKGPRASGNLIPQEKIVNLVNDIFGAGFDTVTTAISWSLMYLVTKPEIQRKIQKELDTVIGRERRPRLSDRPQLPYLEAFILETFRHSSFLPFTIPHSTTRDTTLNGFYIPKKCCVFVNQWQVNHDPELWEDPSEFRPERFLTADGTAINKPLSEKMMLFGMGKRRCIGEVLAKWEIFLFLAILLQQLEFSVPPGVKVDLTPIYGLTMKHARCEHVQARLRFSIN

sigma-1 receptors = sigma-1 receptors (Cavia porcellus, UniProt Q60492); test: Behavioral receptor assays: sigma-1; format: binding; conditions: guinea pig
Method: (§1) Various compounds of the present invention (19, 31, and 32) were evaluated in a group of assays based on mammalian cellular receptors associated with behavior. The group consisted of assays base on human dopamine D1, D2L, D3, D4.2, D4.4, D4.7, and D5 receptors, and the transporter; human serotonin 5-HT1A, 5-HT1B, 5-HT1D, 5-HT2A, 5-HT2B, 5-HT2C, 5-HT3, 5-HT5A, 5-HT6, and 5-HT7 receptors, and the human serotonin transporter; guinea pig 5-HT4 and sigma-1 receptors; rat sigma-2 and muscarinic receptors; and human NK1-3 receptors. The following table presents a subset of the results of these assays.

human serotonin 5-HT2A = human serotonin 5-HT2A (Homo sapiens, UniProt P28223); test: Behavioral receptor assays: 5-HT2A; format: binding; conditions: read-out: Receptors (IC50) 5-HT2A
Method: as §1

CYP1A2 [14] = molecular target: T6, CYP1A2
GSH Level [15] = test: Safety Assessment: GSH Level
RedOx State [16] = test: Safety Assessment: RedOx State
Cell Viability [17] = test: Safety Assessment: Cell Viability
Membrane Integrity [18] = test: Safety Assessment: Membrane Integrity
Caspase-3 [19] = test: Safety Assessment: Caspase-3 Induction
CYP2C9 [20] = molecular target: T2, CYP2C9; test: In Vitro Metabolism (isozymes of P450) CYP2C9
CYP2D6 [21] = molecular target: T3, CYP2D6; test: In Vitro Metabolism (isozymes of P450) CYP2D6
CYP3A4 [22] = molecular target: T5, CYP3A4; test: In Vitro Metabolism (isozymes of P450) CYP3A4
CYP2C19 [23] = molecular target: T4, CYP2C19; test: In Vitro Metabolism (isozymes of P450) CYP2C19
Male Wistar rats = test: MK-801-Induced Psychosis Model; format: in vivo, rat; conditions: rat, 0.5, 1.0 and 5.0 mg/kg i.p.; MK-801 0.3 mg/kg i.p.
Text: The non-competitive NMDA receptor antagonist MK-801 induces stereotypies and hyperactivity in rodents (1) by interacting with the NMDA receptor-associated ion channel. Phencyclidine, which also interferes with the NMDA receptor, produces psychotic effects in humans similar in many respects to schizophrenia. […] Therefore the MK-801-induced activity and stereotypies in rats may represent an appropriate animal model to test the potential efficacy of antipsychotic drugs.
Male Wistar rats (Iffa Crédo, St Germain/l'Arbresle, France), weight 250-300 g were housed 2 per cage on a 12 h/12 h light dark cycle (lights on at 7.00 a.m.) at a room temperature of 21±2° C. for a minimum of 5 days before testing. All animals had access to commercial food and tap water ad libitum.
On the day of the experiment, rats were treated with either reference drug vehicle, the reference drugs haloperidol or clozapine the test compound vehicle or test compounds. After administration, the rats were returned to their home cages for 15 minutes. […] The remaining rats treated with placebo received a second injection of vehicle. The standard injection volume was 2.0 ml/kg. After 10 minutes in the home cages, rats were transferred to the test box (Plexiglas, 29×12×12 cm), 5 minutes before the assessment for accomodation. The test box was cleaned with 70% ethanol before each assessment. Stereotypies, defined as wall-contacts with the snout, and locomotion, defined as turn-rounds of 180°, were assessed during 5 minute periods.

human sigma receptor = human sigma receptor (Homo sapiens, UniProt Q99720); test: Human sigma receptor assay; format: binding; conditions: read-out: IC50 Against Human Sigma Receptor
Method: (§2) The ability of test compounds to displace sigma ligands in vitro was determined by the methods of de Costa et al. (FEBS Lett. 251:53 (1989)) and De Haven-Hudkine et al. (Eur. J. Pharmacol. 227:372 (1992)) having guinea pig as a receptor source. Whereas, the methods of Gamapatju et al. (J. Pharm.&Exp. 289:251 (1999)) were utilized for human sigma receptors.

[24] = molecular target: T7, guinea pig sigma receptor (Cavia porcellus, UniProt Q60492); test: Guinea pig sigma receptor assay; format: binding; conditions: read-out: IC50 Against Guinea Pig Sigma Receptor
T7 construct: having guinea pig as a receptor source; from tissue; host or cells: guinea pig
Method: as §2

T1 sequence (Q60492 whole entry): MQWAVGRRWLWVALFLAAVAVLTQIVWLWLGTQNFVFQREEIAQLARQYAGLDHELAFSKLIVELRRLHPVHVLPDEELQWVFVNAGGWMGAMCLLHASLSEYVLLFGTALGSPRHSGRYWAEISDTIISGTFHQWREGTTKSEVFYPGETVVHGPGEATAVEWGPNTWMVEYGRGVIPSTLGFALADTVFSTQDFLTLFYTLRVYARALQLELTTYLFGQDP
T3 sequence (P10635 whole entry): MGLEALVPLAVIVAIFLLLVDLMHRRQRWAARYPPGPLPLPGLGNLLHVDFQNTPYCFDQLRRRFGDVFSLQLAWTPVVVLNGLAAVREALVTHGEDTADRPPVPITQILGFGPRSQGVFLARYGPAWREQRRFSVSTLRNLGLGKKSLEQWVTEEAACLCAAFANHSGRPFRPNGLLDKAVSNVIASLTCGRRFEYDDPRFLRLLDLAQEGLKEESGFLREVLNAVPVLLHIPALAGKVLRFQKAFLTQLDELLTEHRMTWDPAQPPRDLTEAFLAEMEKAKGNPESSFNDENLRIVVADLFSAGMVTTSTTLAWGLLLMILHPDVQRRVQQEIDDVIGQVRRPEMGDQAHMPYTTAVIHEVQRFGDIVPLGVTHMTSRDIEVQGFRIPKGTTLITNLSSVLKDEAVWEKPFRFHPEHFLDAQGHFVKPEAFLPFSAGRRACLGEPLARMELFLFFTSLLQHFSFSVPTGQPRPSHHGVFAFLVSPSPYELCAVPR
T5 sequence (P08684 whole entry): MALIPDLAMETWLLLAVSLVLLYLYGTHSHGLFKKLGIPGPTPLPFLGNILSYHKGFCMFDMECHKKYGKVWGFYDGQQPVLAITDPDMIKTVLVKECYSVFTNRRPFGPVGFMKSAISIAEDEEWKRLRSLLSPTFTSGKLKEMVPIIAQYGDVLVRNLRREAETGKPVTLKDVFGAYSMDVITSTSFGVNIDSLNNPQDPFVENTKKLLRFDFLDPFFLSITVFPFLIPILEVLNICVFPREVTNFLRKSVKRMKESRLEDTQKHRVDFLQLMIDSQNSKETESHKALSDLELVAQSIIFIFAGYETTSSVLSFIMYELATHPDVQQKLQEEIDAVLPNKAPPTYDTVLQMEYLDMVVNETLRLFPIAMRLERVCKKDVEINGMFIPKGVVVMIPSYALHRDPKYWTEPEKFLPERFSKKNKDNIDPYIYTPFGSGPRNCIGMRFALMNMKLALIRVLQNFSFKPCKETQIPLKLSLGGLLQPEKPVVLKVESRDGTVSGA
T4 sequence (P33261 whole entry): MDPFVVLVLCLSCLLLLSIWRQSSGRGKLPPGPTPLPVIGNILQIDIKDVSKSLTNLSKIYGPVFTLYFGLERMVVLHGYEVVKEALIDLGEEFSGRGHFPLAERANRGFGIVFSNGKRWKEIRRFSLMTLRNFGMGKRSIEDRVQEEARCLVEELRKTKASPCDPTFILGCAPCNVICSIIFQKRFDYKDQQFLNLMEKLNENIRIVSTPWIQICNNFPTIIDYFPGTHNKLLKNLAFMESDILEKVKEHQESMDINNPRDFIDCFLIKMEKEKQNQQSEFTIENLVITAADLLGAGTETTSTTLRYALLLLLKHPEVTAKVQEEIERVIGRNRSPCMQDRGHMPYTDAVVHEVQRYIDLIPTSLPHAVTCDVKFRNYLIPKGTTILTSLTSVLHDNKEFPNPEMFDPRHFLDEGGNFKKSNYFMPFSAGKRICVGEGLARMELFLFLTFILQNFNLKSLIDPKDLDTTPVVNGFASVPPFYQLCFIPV
T2 sequence (P11712 whole entry): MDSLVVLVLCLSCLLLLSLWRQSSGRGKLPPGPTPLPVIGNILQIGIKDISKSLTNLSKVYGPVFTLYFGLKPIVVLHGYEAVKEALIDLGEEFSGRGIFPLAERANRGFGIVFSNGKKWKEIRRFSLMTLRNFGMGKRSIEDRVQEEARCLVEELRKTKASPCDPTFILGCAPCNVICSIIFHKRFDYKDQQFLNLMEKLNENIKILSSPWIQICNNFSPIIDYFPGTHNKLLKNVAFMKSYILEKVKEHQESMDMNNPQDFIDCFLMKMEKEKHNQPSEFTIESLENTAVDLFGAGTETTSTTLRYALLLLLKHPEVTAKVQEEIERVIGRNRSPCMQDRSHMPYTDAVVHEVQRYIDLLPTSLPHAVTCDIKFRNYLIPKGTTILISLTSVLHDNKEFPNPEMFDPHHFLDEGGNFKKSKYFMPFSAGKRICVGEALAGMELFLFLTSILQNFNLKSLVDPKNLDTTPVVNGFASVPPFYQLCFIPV
T7 sequence (Q60492 whole entry): as the sequence (Q60492 whole entry) above
Chain of human sigma receptor (Q99720 whole entry): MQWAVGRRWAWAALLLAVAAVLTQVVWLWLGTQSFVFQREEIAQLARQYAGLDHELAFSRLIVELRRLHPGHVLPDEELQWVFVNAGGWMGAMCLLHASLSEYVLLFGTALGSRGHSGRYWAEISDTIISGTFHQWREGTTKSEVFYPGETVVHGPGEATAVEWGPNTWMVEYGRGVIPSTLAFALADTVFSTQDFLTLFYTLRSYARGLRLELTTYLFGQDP
Chain of sigma-1 receptors (Q60492 whole entry): as the sequence (Q60492 whole entry) above
Chain of human serotonin 5-HT2A (P28223 whole entry): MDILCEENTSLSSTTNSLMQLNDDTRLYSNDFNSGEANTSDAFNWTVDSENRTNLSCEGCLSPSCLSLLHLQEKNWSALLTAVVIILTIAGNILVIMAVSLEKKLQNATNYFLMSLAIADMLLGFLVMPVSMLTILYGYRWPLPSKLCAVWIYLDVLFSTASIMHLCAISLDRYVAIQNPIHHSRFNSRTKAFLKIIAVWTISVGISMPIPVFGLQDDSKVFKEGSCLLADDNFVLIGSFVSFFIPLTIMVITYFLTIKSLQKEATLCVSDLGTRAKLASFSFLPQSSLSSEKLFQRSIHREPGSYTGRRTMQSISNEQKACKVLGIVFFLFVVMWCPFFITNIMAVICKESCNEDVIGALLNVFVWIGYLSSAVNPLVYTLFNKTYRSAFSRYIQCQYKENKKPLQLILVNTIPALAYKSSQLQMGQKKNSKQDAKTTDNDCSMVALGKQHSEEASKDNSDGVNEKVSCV

CC(C)=CCN1CCC2(C)c3cc(O)ccc3CC1C2C (single isomer, unassigned; (+)) [(+)-pentazocine]
potency in displacing [3H]haloperidol relative to spiperone [1]: about 10 times

O=C1CCC2(CCNCC2)Nc2ccccc21 [Compound 11, 3,4-Dihydrospiro[5H-1-benzazepine-2(1H), 4′-piperidin]-5-one]
IC50 [2]: > 1000 nM | % Inhibition [2]: <50% | Papp (Permeability): 4.7 ×10⁻⁶ cm/s | Log D7.5 [3]: 0.48 | CYP2C9 (CYP2C9 [4]): <10 % inhibition | CYP2D6 (CYP2D6 [5]): 15 % inhibition | CYP2C19 (CYP2C19 [6]): <10 % inhibition | CYP3A4 (CYP3A4 [7]): <10 % inhibition | GSH Level (% Control) (GSH Level [8]): <10 % Control | Cell Viability (Cell Viability [9]): <10 % inhibition | Caspase-3 Induction % Induction (Caspase-3 [10]): <10 % Induction | Membrane Integrity (Membrane Integrity [11]): <10 % inhibition | RedOx State (RedOx State [12]): <10 % inhibition | solubility (physchem): 202 µM (≈ 46.5 µg/mL) | fraction unbound (in vitro): 0.3 | DNA Synthesis (DNA Synthesis): <10 % inhibition | Protein Synthesis (Protein Synthesis): 42 % inhibition | CYP1A2 (CYP1A2 [13]): <10 % inhibition

O=C1CCC2(CCN(CCc3ccccc3)CC2)Nc2ccccc21 [Compound 19]
% Inhibition [2]: >50% | IC50 (sigma-1 receptors): < 100 nM | IC50 (human serotonin 5-HT2A): < 1000 nM

O=C1CCC2(CCN(Cc3nc4ccccc4[nH]3)CC2)Nc2ccccc21 [Compound 21, 1′-(2-methylbenzimidazole)-3,4-dih drospiro[5H-1-benzazepine-2(1H)-4′-piperidin]-5-one]
IC50 [2]: < 1000 nM | % Inhibition [2]: >50% | Papp (Permeability): 1.95 ×10⁻⁶ cm/s | CYP1A2 (CYP1A2 [14]): 20 % inhibition | Log D7.5 (Log D7.5): 1.22 | solubility (Solubility): 210 µM (≈ 75.6 µg/mL) | fraction unbound (Protein Binding): 0.01 | Metabolic Stability (% parent remaining) (Metabolic Stability): 17 % parent remaining | GSH Level (% Control) (GSH Level [15]): <10 % Control | RedOx State (RedOx State [16]): 33 % inhibition | DNA Synthesis (DNA Synthesis): 29 % inhibition | Cell Viability (Cell Viability [17]): <10 % inhibition | Protein Synthesis (Protein Synthesis): 14 % inhibition | Membrane Integrity (Membrane Integrity [18]): <10 % inhibition | Caspase-3 Induction % Induction (Caspase-3 [19]): <10 % Induction | CYP2C9 (CYP2C9 [20]): 19 % inhibition | CYP2D6 (CYP2D6 [21]): 100 % inhibition | CYP3A4 (CYP3A4 [22]): 69 % inhibition | CYP2C19 (CYP2C19 [23]): 20 % inhibition

O[C@H]1CCC2(CCN(Cc3ccc(F)cc3)CC2)Nc2ccccc21 [Compound 49]
Papp (Permeability): 27.5 ×10⁻⁶ cm/s | MK-801-induced locomotion (Male Wistar rats): did not reduce | MK-801-induced stereotypies (Male Wistar rats): did not reduce | IC50 (human sigma receptor): < 100 nM | IC50 [24]: < 100 nM | Log D7.5 (Log D7.5): 1.59 | solubility (Solubility): 181 µM (≈ 61.6 µg/mL) | fraction unbound (Protein Binding): 0.37 | Metabolic Stability (% parent remaining) (Metabolic Stability): 69 % parent remaining | GSH Level (% Control) (GSH Level [15]): <10 % Control | RedOx State (RedOx State [16]): 15 % inhibition | DNA Synthesis (DNA Synthesis): <10 % inhibition | Cell Viability (Cell Viability [17]): <10 % inhibition | Protein Synthesis (Protein Synthesis): <10 % inhibition | Membrane Integrity (Membrane Integrity [18]): <10 % inhibition | Caspase-3 Induction % Induction (Caspase-3 [19]): <10 % Induction | CYP1A2 (CYP1A2 [13]): 13 % inhibition | CYP2C9 (CYP2C9 [20]): 18 % inhibition | CYP2D6 (CYP2D6 [21]): 44 % inhibition | CYP3A4 (CYP3A4 [22]): 17 % inhibition | CYP2C19 (CYP2C19 [23]): 19 % inhibition

O[C@@H]1CCC2(CCN(Cc3ccc(F)cc3)CC2)Nc2ccccc21 [Compound 50]
Papp (Permeability): 25.8 ×10⁻⁶ cm/s | MK-801-induced locomotion (Male Wistar rats): caused a reduction | MK-801-induced stereotypies (Male Wistar rats): caused a reduction | IC50 (human sigma receptor): < 1000 nM | IC50 [24]: < 100 nM | Log D7.5 (Log D7.5): 1.62 | solubility (Solubility): 205 µM (≈ 69.8 µg/mL) | fraction unbound (Protein Binding): 0.38 | Metabolic Stability (% parent remaining) (Metabolic Stability): 87 % parent remaining | GSH Level (% Control) (GSH Level [15]): <10 % Control | RedOx State (RedOx State [16]): 12 % inhibition | DNA Synthesis (DNA Synthesis): <10 % inhibition | Cell Viability (Cell Viability [17]): <10 % inhibition | Protein Synthesis (Protein Synthesis): <10 % inhibition | Membrane Integrity (Membrane Integrity [18]): <10 % inhibition | Caspase-3 Induction % Induction (Caspase-3 [19]): <10 % Induction | CYP1A2 (CYP1A2 [13]): 14 % inhibition | CYP2C9 (CYP2C9 [20]): 19 % inhibition | CYP2D6 (CYP2D6 [21]): 31 % inhibition | CYP3A4 (CYP3A4 [22]): 19 % inhibition | CYP2C19 (CYP2C19 [23]): 19 % inhibition
